Measured values taken from the Kinase Knowledgebase extract (Sharma et al. 2016).

Biological target: MAPK14 (human) (UniProt Q16539)
Assay: Inhibition of MAPK14 Kinase Activity

Chain of MAPK14 (human) (Q16539 whole entry, looked up): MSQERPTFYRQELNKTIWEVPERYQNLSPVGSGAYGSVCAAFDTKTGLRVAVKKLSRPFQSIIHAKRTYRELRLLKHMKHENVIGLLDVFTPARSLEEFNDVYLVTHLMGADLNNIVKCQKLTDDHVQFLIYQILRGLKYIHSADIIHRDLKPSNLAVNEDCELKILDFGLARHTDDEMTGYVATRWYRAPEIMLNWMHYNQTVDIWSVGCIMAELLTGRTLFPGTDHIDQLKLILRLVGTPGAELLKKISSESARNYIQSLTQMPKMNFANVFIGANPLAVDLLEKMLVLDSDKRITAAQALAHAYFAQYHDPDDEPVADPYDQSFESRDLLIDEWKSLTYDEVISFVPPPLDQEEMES

SMILES	IC50 [µM]
CN(C)CCNC(=O)CNc1cc(Cl)c(N2CC(Cc3ccc(F)cc3F)CCC2=O)c(Cl)c1 (configuration not stated)	≤ 10
O=C1CCC(Sc2ccc(F)cc2F)CN1C1C(Cl)CCCC1Cl (configuration not stated)	≤ 10
O=C1CCC(Oc2ccccc2F)CN1c1c(Cl)cccc1Cl (configuration not stated)	≤ 10
O=C(Cc1ccccc1)Nc1ccc(Cl)c(N2CC(Cc3ccc(F)cc3F)CCC2=O)c1Cl (configuration not stated)	≤ 10
CCN(CC)CCNc1cc(Cl)c(N2CC(Cc3ccc(F)cc3F)CCC2=O)c(Cl)c1 (configuration not stated)	≤ 10
C[C@@H]1C[C@H](Cc2ccc(F)cc2F)CN(c2c(Cl)cc(N)cc2Cl)C1=O	≤ 10
O=C1CCC(Cc2ccc(F)cc2F)CN1c1c(Cl)cc(NCc2ccccc2O)cc1Cl (configuration not stated)	≤ 10
O=C1CCC(Cc2ccc(F)cc2F)CN1c1c(Cl)cc(NC2CCNCC2)cc1Cl (configuration not stated)	≤ 10
CN1CCN(CCNc2cc(Cl)c(N3CC(Cc4ccc(F)cc4F)CCC3=O)c(Cl)c2)CC1 (configuration not stated)	≤ 10
Cn1nc(C(C)(C)C)cc1NC(=O)OCc1ccccc1CC1CCC(=O)N(c2c(Cl)cccc2Cl)C1 (configuration not stated)	≤ 10
O=C1NCC(Cc2ccc(F)cc2F)CN1c1c(Cl)ccc(O)c1Cl (configuration not stated)	≤ 10
Cc1ccccc1CC1CN(c2c(Cl)cccc2Cl)C(=O)CO1 (configuration not stated)	≤ 10
C[C@@H]1C[C@H](Cc2ccc(F)cc2F)CN(c2c(Cl)cc([N+](=O)[O-])cc2Cl)C1=O	≤ 10
O=C1SCC(Cc2ccc(F)cc2)CN1c1c(Cl)cccc1Cl (configuration not stated)	≤ 10
O=C(NCc1ccccc1)NCc1ccccc1CC1CCC(=O)N(c2c(Cl)cccc2Cl)C1 (configuration not stated)	≤ 10
O=C1CCC(Sc2ccc(F)cc2F)CN1c1c(Cl)ncc(O)c1Cl (configuration not stated)	≤ 10
O=C(Cc1ccccc1)NC1CC(Cl)C(N2CC(Oc3ccc(F)cc3F)CCC2=O)C(Cl)C1 (configuration not stated)	≤ 10
O=C1COC(Cc2ccccc2)CN1c1c(Cl)cccc1Cl (configuration not stated)	≤ 10
Cc1ccc(OC2CCC(=O)N(c3c(Cl)cncc3Cl)C2)c(C)c1 (configuration not stated)	≤ 10
O=C1CCC(Oc2ccc(F)cc2F)CN1c1c(Cl)cc(O)cc1Cl (configuration not stated)	≤ 10
O=C1CCC(Cc2ccc(F)cc2F)CN1C1C(Cl)CC(CO)CC1Cl (configuration not stated)	≤ 10
Cc1ccc(CC2CSC(=O)N(c3c(Cl)cccc3Cl)C2)cc1 (configuration not stated)	≤ 10
O=C1CCC(C(O)c2ccc(F)cc2F)CN1c1c(Cl)cc(Br)cc1Cl (configuration not stated)	≤ 10
Cc1ccccc1CC1CN(C)C(=O)N(c2c(Cl)cccc2Cl)C1 (configuration not stated)	≤ 10
Cc1cc(C)cc(CC2CCC(=O)N(c3c(Cl)cncc3Cl)C2)c1 (configuration not stated)	≤ 10

SMILES	IC50 [µM]
O=C1CCC(Oc2ccccc2)CN1c1c(Cl)ccnc1Cl (configuration not stated)	≤ 10
O=C1CCC(Oc2ccc(Cl)cc2Cl)CN1c1c(Cl)cncc1Cl (configuration not stated)	≤ 10
O=C1CSC(Cc2ccc(Cl)cc2Cl)CN1c1c(Cl)cccc1Cl (configuration not stated)	≤ 10
CC(C)(C)OC(=O)N(CC(N)=O)c1cc(Cl)c(N2CC(Cc3ccc(F)cc3F)CCC2=O)c(Cl)c1 (configuration not stated)	≤ 10
O=C1CCC(Cc2ccccc2F)CN1c1c(Cl)cncc1Cl (configuration not stated)	≤ 10
O=C1NCC(Cc2cc(F)cc(F)c2)CN1c1c(Cl)cccc1Cl (configuration not stated)	≤ 10
COc1ccccc1CC1CN(c2c(Cl)cccc2Cl)C(=O)CS1 (configuration not stated)	≤ 10
O=C1CCC(Sc2ccc(F)cc2F)CN1c1c(Cl)cncc1Cl (configuration not stated)	≤ 10
COc1ccccc1CC1CNC(=O)N(c2c(Cl)cccc2Cl)C1 (configuration not stated)	≤ 10
O=C1NCC(Cc2ccc(F)cc2F)CN1c1c(Cl)cc(CO)cc1Cl (configuration not stated)	≤ 10
Cc1cccc(C)c1N1C[C@H](Cc2ccc(F)cc2F)C[C@H](C)C1=O	≤ 10
O=C1CCC(Sc2cc(Cl)cc(Cl)c2)CN1c1c(Cl)ccnc1Cl (configuration not stated)	≤ 10
O=C1CCC(Cc2ccc(Cl)cc2)CN1c1c(Cl)ccnc1Cl (configuration not stated)	≤ 10
O=C1CC/C(=C\c2ccc(F)cc2F)CN1c1c(Cl)cc(Br)cc1Cl	≤ 10
Cc1cc(CCCCCO)cc(C)c1N1CC(Cc2ccc(F)cc2F)CCC1=O (configuration not stated)	≤ 10
COc1ccc(CC2CCC(=O)N(c3c(Cl)ccnc3Cl)C2)cc1 (configuration not stated)	≤ 10
CC(=O)Nc1ccc(Cl)c(N2CC(Oc3ccc(F)cc3F)CCC2=O)c1Cl (configuration not stated)	≤ 10
Cc1cc(N)cc(C)c1N1CC(Cc2ccc(F)cc2F)CNC1=O (configuration not stated)	≤ 10
O=C1CCC(Oc2cc(Cl)cc(Cl)c2)CN1c1c(Cl)ccnc1Cl (configuration not stated)	≤ 10
O=C1CCC(C(O)c2ccc(F)cc2F)CN1c1c(Cl)cccc1Cl (configuration not stated)	≤ 10
O=C1CCC(Sc2ccc3ccccc3c2)CN1c1c(Cl)ccnc1Cl (configuration not stated)	≤ 10
Nc1cc(Cl)c(N2CC(Cc3ccc(F)cc3F)COC2=O)c(Cl)c1 (configuration not stated)	≤ 10
CCNC(=O)NCc1ccccc1CC1CCC(=O)N(c2c(Cl)cccc2Cl)C1 (configuration not stated)	≤ 10
O=C1SCC(Cc2cc(F)cc(F)c2)CN1c1c(Cl)cccc1Cl (configuration not stated)	≤ 10

Second part, the compound after the results:

IC50 [µM]	SMILES
≤ 10	O=C1CSC(Cc2ccc(F)cc2F)CN1c1c(Cl)cc(CO)cc1Cl (configuration not stated)
≤ 10	Cc1ccc(SC2CCC(=O)N(C3C(Cl)CCCC3Cl)C2)cc1 (configuration not stated)
≤ 10	O=C1CCC(Oc2ccccc2Cl)CN1c1c(Cl)cccc1Cl (configuration not stated)
≤ 10	CN1CC(Cc2ccc(F)cc2F)CN(c2c(Cl)cc(N)cc2Cl)C1=O (configuration not stated)
≤ 10	Nc1ccc(CC2CCC(=O)N(c3c(Cl)cccc3Cl)C2)cc1 (configuration not stated)
≤ 10	Cc1cc(C(=O)O)cc(C)c1N1CC(Cc2ccc(F)cc2F)CNC1=O (configuration not stated)
≤ 10	O=C(Cc1ccccc1)Nc1cc(Cl)c(N2CC(Cc3ccc(F)cc3F)SCC2=O)c(Cl)c1 (configuration not stated)
≤ 10	O=C1CCC(Cc2ccc(F)cc2F)CN1c1c(Cl)cc(N2C(=O)CCCC2=O)cc1Cl (configuration not stated)
≤ 10	O=C1CCC(Cc2ccc(F)cc2F)CN1c1c(Cl)cc(C#CCCO)cc1Cl (configuration not stated)
≤ 10	CS(=O)(=O)Nc1cc(Cl)c(N2CC(Cc3ccc(F)cc3F)CCC2=O)c(Cl)c1 (configuration not stated)
≤ 10	Nc1cc(Cl)c(N2CC(Sc3ccc(F)cc3F)CCC2=O)c(Cl)n1 (configuration not stated)
≤ 10	O=C1COC(Cc2ccc(F)cc2)CN1c1c(Cl)cccc1Cl (configuration not stated)
≤ 10	CS(=O)(=O)Nc1ccc(Cl)c(N2CC(Cc3ccc(F)cc3F)CCC2=O)c1 (configuration not stated)
≤ 10	CC(C)(C)OC(=O)N(CCN)c1cc(Cl)c(N2CC(Cc3ccc(F)cc3F)CCC2=O)c(Cl)c1 (configuration not stated)
≤ 10	CN1CC(Cc2ccc(Cl)cc2Cl)CN(c2c(Cl)cccc2Cl)C1=O (configuration not stated)
≤ 10	Cc1ccc(CC2CN(C)C(=O)N(c3c(Cl)cccc3Cl)C2)cc1 (configuration not stated)
≤ 10	Cc1ccc(SC2CCC(=O)N(c3c(Cl)ccnc3Cl)C2)cc1 (configuration not stated)
≤ 10	CC(=O)Nc1ncc(Cl)c(N2CC(Sc3ccc(F)cc3F)CCC2=O)c1Cl (configuration not stated)
≤ 10	O=C1SCC(Cc2ccc(Cl)cc2Cl)CN1c1c(Cl)cccc1Cl (configuration not stated)
≤ 10	C[C@H]1C[C@@H](Cc2ccc(F)cc2F)CN(c2c(Cl)cccc2Cl)C1=O
≤ 10	O=C1OCC(Cc2ccccc2)CN1c1c(Cl)cccc1Cl (configuration not stated)

IC50 [µM]	SMILES
≤ 10	Cc1cc(C)cc(OC2CCC(=O)N(c3c(Cl)csc3Cl)C2)c1 (configuration not stated)
≤ 10	CNc1cc(Cl)c(N2CC(Cc3ccc(F)cc3F)COC2=O)c(Cl)c1 (configuration not stated)
≤ 10	CN1CC(=O)N(c2c(Cl)cccc2Cl)CC1Cc1ccc(F)cc1F (configuration not stated)
≤ 10	Cc1cccc(C)c1N1CC(CCCc2ccccc2)CCC1=O (configuration not stated)
≤ 10	O=C1CCC(Oc2cc(Cl)cc(Cl)c2)CN1c1c(Cl)cncc1Cl (configuration not stated)
≤ 10	Cc1cc(NC(=O)OC(C)(C)C)cc(C)c1N1CC(Cc2ccc(F)cc2F)CCC1=O (configuration not stated)
≤ 10	CN1CC(Cc2ccccc2)CN(c2c(Cl)cccc2Cl)C1=O (configuration not stated)
≤ 10	O=C1CCC(Oc2ccc(F)cc2F)CN1c1c(Cl)sc(CO)c1Cl (configuration not stated)
≤ 10	Nc1cnc(Cl)c(N2CC(Oc3ccc(F)cc3F)CCC2=O)c1Cl (configuration not stated)
≤ 10	O=C1SCC(Cc2cccc3ccccc23)CN1c1c(Cl)cccc1Cl (configuration not stated)
≤ 10	O=C1CSC(Cc2cc(Cl)cc(Cl)c2)CN1c1c(Cl)cccc1Cl (configuration not stated)
≤ 10	O=C1CCC(Oc2ccccc2)CN1C1C(Cl)CCCC1Cl (configuration not stated)
≤ 10	Cc1cc(C)cc(OC2CCC(=O)N(c3c(Cl)ccnc3Cl)C2)c1 (configuration not stated)
≤ 10	NC1CC(Cl)C(N2CC(Sc3ccc(F)cc3F)CCC2=O)C(Cl)C1 (configuration not stated)
≤ 10	O=C1CCC(Sc2ccc(Cl)cc2)CN1c1c(Cl)ccnc1Cl (configuration not stated)
≤ 10	CNc1cnc(Cl)c(N2CC(Sc3ccc(F)cc3F)CCC2=O)c1Cl (configuration not stated)
≤ 10	O=C1CCC(Oc2ccc(F)cc2F)CN1c1c(Cl)sc(O)c1Cl (configuration not stated)
≤ 10	O=C1CSC(Cc2ccc(F)cc2F)CN1c1c(Cl)ccc(O)c1Cl (configuration not stated)
≤ 10	O=C1CCC(Sc2ccc(F)cc2)CN1c1c(Cl)cncc1Cl (configuration not stated)
≤ 10	O=C1CCC(Oc2ccc(Cl)cc2)CN1c1c(Cl)ccnc1Cl (configuration not stated)
≤ 10	O=C1NCC(Cc2ccc(F)cc2F)CN1c1c(Cl)cccc1Cl (configuration not stated)

IC50 [µM]	SMILES
≤ 10	CN(C)CCNc1cc(Cl)c(N2CC(Cc3ccccc3F)CCC2=O)c(Cl)c1 (configuration not stated)
≤ 10	O=C1OCC(Cc2cccc3ccccc23)CN1c1c(Cl)cccc1Cl (configuration not stated)
≤ 10	C[C@@H]1C[C@H](Cc2ccc(F)cc2F)CN(c2c(Cl)cc(NC(=O)OC(C)(C)C)cc2Cl)C1=O
≤ 10	O=C1CCC(Cc2ccc(F)cc2F)CN1c1c(Cl)cc([N+](=O)[O-])cc1Cl (configuration not stated)
≤ 10	CC[C@H]1C[C@@H](Cc2ccc(F)cc2F)CN(c2c(Cl)cccc2Cl)C1=O
≤ 10	Cc1cccc(C)c1N1CC(Cc2ccccc2Br)CCC1=O (configuration not stated)
≤ 10	O=C1CCC(Cc2ccccc2Cl)CN1c1c(Cl)cncc1Cl (configuration not stated)
≤ 10	O=C1CCC(Sc2ccc(F)cc2F)CN1c1c(Cl)ccc(O)c1Cl (configuration not stated)
≤ 10	O=C1CCC(Sc2ccc(Cl)cc2)CN1c1c(Cl)csc1Cl (configuration not stated)
≤ 10	O=C1CCC(Sc2cc(Cl)cc(Cl)c2)CN1c1c(Cl)cncc1Cl (configuration not stated)
≤ 10	O=C(NCc1ccccc1CC1CCC(=O)N(c2c(Cl)cccc2Cl)C1)Nc1ccccc1 (configuration not stated)
≤ 10	CC(=O)Nc1ccc(Cl)c(N2CC(Cc3ccc(F)cc3F)CCC2=O)c1Cl (configuration not stated)
≤ 10	COc1ccc(CC2CN(c3c(Cl)cccc3Cl)C(=O)CS2)cc1 (configuration not stated)
≤ 10	CC(=O)N1CCC(Nc2cc(Cl)c(N3CC(Cc4ccc(F)cc4F)CCC3=O)c(Cl)c2)CC1 (configuration not stated)
≤ 10	O=C1CCC(Sc2ccc(Cl)cc2Cl)CN1c1c(Cl)csc1Cl (configuration not stated)
≤ 10	O=C1CCC(Cc2ccccc2Cl)CN1C1C(Cl)CCCC1Cl (configuration not stated)
≤ 10	COC(=O)/C=C/c1ccccc1CC1CCC(=O)N(c2c(C)cccc2C)C1 (configuration not stated)
≤ 10	O=C1OCC(Cc2cc(Cl)cc(Cl)c2)CN1c1c(Cl)cccc1Cl (configuration not stated)
≤ 10	CCOC(=O)CCCC(=O)Nc1cc(Cl)c(N2CC(Cc3ccc(F)cc3F)CCC2=O)c(Cl)c1 (configuration not stated)
≤ 10	O=C1CCC(Sc2ccccc2F)CN1c1c(Cl)ccnc1Cl (configuration not stated)
≤ 10	O=C1COC(Cc2ccc(Cl)cc2Cl)CN1c1c(Cl)cccc1Cl (configuration not stated)
